Columns and labels:
[1] = Spraying coated dispersion with water solutions (cospraying); type: physicochemical; settings: water solution of the compound sprayed on knife coated dispersion of Example 9B
Source text: For an ionic dispersion, a solution containing polyion of the opposite charge can be applied to the film to create an instantaneous tack-free film. For example, an anionic dispersion can be coated and before it has formed a film, a solution containing polyvalent cation is sprayed on the coating's surface to yield a tack free film. This method is commonly referred to as “cospraying.” A preferred solution contains water and metal cations, such as calcium and magnesium. Preferably, the film becomes tack free almost instantaneously after spraying the water solution (i.e., within a minute, preferably within a few seconds). In applications where very rapid tack-free times are required, such as in preoperative preparation for surgery, it may be beneficial to mist or otherwise wet the surface of the film. By “tack-free,” it is generally meant that the misted film contains little or no adhesion to other substrates at ambient conditions, typically from about 20° to 30° C.
The dispersions of Example 9B we knife coated onto a polypropylene coated paper release liner and sprayed with water solutions containing the following materials. The film appearance was recorded in the Result column.

[2] = Stability of dispersions on storage / standing; type: physicochemical; settings: Example 6 dispersions
Description: The particle size of certain dispersions was measured on a Coulter LS 100 laser Particle Size Analyzer equipped with a microvolume module. Usually, the particle size was measured one day after dispersions were made. The particle size was measured again about 30 days after the dispersions were made. During this period, the dispersions were sealed and stored at room temperature. Samples were diluted in the same solvent mixture as the original dispersion to make the measurement. The results are shown in Table 2 below, which indicate that the dispersions have mean particle sizes generally under about 5 to 6 micrometers (μm). All dispersions appear to be stable after about 30 days.
After adding the prepolymer, each example was adjusted to a pH of about 7.0. To Example 2B was added a 40% solids, water based polyurethane pressure sensitive adhesive (PSA) (WD4006 from H.B. Fuller, St. Paul, Minn.). The PSA was added to increase adhesion to skin. The PSA was added to the alcohol-water solvent system prior to prepolymer addition. The EDA was added and the reaction mixture stirred at high speed for 20 minutes. Stable dispersions were obtained in call cases.
The dispersions with and without iodine anti-microbial agents were applied to human skin in small patches and allowed to dry. Adhesion was very good for all samples.

Compound | Result (film appearance) [1] | stability of anti-microbial agent in the dispersions upon standing [2]
O=C([O-])CC(O)(CC(=O)[O-])C(=O)[O-].O=C([O-])CC(O)(CC(=O)[O-])C(=O)[O-].[Ca+2].[Ca+2].[Ca+2] [Calcium Citrate] | No effect | 
[Ca+2].[Cl-].[Cl-] [Calcium chloride] | Almost instantaneous tack-free film. | 
[Cl-].[Na+] [Sodium Chloride] | Random coagulation. | 
povidone-iodine |  | split out of the dispersions as a separate phase upon standing
